pIC50: −log10 of the molar value.
System: 922993-354-T-J3-PDC complex spheroids, viability, % test/control
Experiment: Anticancer human tumor 922993-354-T-J3-PDC patient-derived endometrial carcinoma cell line growth inhibition [CLK]
Details: for pIC50: curve of first compound; for viability, T/C: stronger effect = lower value
Outline: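 Multi-cell-type spheroids combined patient-derived tumor cells with HUVEC endothelial cells and human mesenchymal stem cells. Paired agents were dosed in half-log steps down from about clinical Cmax, or from 10 microM where Cmax was unknown.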

[1] = second compound 0.0316 µM, first compound 0.0316 µM
[2] = second compound 0.0316 µM, first compound 0.1 µM
[3] = second compound 0.0316 µM, first compound 0.316 µM
[4] = second compound 0.0316 µM, first compound 1 µM
[5] = second compound 0.0316 µM, first compound 3.16 µM
[6] = second compound 0.0316 µM, first compound 10 µM
[7] = second compound 0.1 µM, first compound 0.0316 µM
[8] = second compound 0.1 µM, first compound 0.1 µM
[9] = second compound 0.1 µM, first compound 0.316 µM
[10] = second compound 0.1 µM, first compound 1 µM
[11] = second compound 0.1 µM, first compound 3.16 µM
[12] = second compound 0.1 µM, first compound 10 µM
[13] = second compound 0.316 µM, first compound 0.0316 µM
[14] = second compound 0.316 µM, first compound 0.1 µM
[15] = second compound 0.316 µM, first compound 0.316 µM
[16] = second compound 0.316 µM, first compound 1 µM
[17] = second compound 0.316 µM, first compound 3.16 µM
[18] = second compound 0.316 µM, first compound 10 µM
[19] = second compound 1 µM, first compound 0.0316 µM
[20] = second compound 1 µM, first compound 0.1 µM
[21] = second compound 1 µM, first compound 0.316 µM
[22] = second compound 1 µM, first compound 1 µM
[23] = second compound 1 µM, first compound 3.16 µM
[24] = second compound 1 µM, first compound 10 µM
[25] = second compound 3.16 µM, first compound 0.0316 µM
[26] = second compound 3.16 µM, first compound 0.1 µM
[27] = second compound 3.16 µM, first compound 0.316 µM
[28] = second compound 3.16 µM, first compound 1 µM
[29] = second compound 3.16 µM, first compound 3.16 µM
[30] = second compound 3.16 µM, first compound 10 µM
[31] = second compound 10 µM, first compound 0.0316 µM
[32] = second compound 10 µM, first compound 0.1 µM
[33] = second compound 10 µM, first compound 0.316 µM
[34] = second compound 10 µM, first compound 1 µM
[35] = second compound 10 µM, first compound 3.16 µM
[36] = second compound 10 µM, first compound 10 µM
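Further: spheroids exposed to the agents for 7 days before readout.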

CC(=O)O[C@H]1C(=O)[C@@]2(C)[C@H]([C@H](OC(=O)c3ccccc3)[C@]3(O)C[C@H](OC(=O)[C@H](O)[C@@H](NC(=O)c4ccccc4)c4ccccc4)C(C)=C1C3(C)C)[C@]1(OC(C)=O)CO[C@@H]1C[C@@H]2O + CNC(=O)c1ccc(Nc2nc(OC3CCCC3)c3c(-c4ccc5nc(C)oc5c4)c[nH]c3n2)c(OC)c1
pIC50 (second compound 0.0316 µM): < 5.00
pIC50 (second compound 0.1 µM): < 5.00
pIC50 (second compound 0.316 µM): < 5.00
pIC50 (second compound 1 µM): > 7.50
pIC50 (second compound 3.16 µM): > 7.50
pIC50 (second compound 10 µM): > 7.50
viability, T/C [1]: 113%
viability, T/C [2]: 104%
viability, T/C [3]: 99.3%
viability, T/C [4]: 99.2%
viability, T/C [5]: 69.3%
viability, T/C [6]: 51%
viability, T/C [7]: 101%
viability, T/C [8]: 92.1%
viability, T/C [9]: 104%
viability, T/C [10]: 77.1%
viability, T/C [11]: 61.2%
viability, T/C [12]: 51.8%
viability, T/C [13]: 60.2%
viability, T/C [14]: 59%
viability, T/C [15]: 66.8%
viability, T/C [16]: 73.2%
viability, T/C [17]: 79.7%
viability, T/C [18]: 68.1%
viability, T/C [19]: 42.6%
viability, T/C [20]: 46%
viability, T/C [21]: 44.7%
viability, T/C [22]: 45.9%
viability, T/C [23]: 51.1%
viability, T/C [24]: 47.1%
viability, T/C [25]: 34.6%
viability, T/C [26]: 41.4%
viability, T/C [27]: 35.8%
viability, T/C [28]: 44.3%
viability, T/C [29]: 42.6%
viability, T/C [30]: 39.9%
viability, T/C [31]: 35.4%
viability, T/C [32]: 39.2%
viability, T/C [33]: 40.2%
viability, T/C [34]: 37.4%
viability, T/C [35]: 44.9%
viability, T/C [36]: 36.1%

CCc1c2c(nc3ccc(O)cc13)-c1cc3c(c(=O)n1C2)COC(=O)[C@]3(O)CC + CNC(=O)c1ccc(Nc2nc(OC3CCCC3)c3c(-c4ccc5nc(C)oc5c4)c[nH]c3n2)c(OC)c1
pIC50 (second compound 0.0316 µM): 7.71
pIC50 (second compound 0.1 µM): 7.64
pIC50 (second compound 0.316 µM): 7.78
pIC50 (second compound 1 µM): > 8.50
pIC50 (second compound 3.16 µM): > 8.50
pIC50 (second compound 10 µM): > 8.50
viability, T/C (second compound 0.0316 µM, first compound 0.00316 µM): 101%
viability, T/C (second compound 0.0316 µM, first compound 0.01 µM): 85.3%
viability, T/C [1]: 24.8%
viability, T/C [2]: 15.1%
viability, T/C [3]: 22.3%
viability, T/C [4]: 25.9%
viability, T/C (second compound 0.1 µM, first compound 0.00316 µM): 99.2%
viability, T/C (second compound 0.1 µM, first compound 0.01 µM): 79.2%
viability, T/C [7]: 40.6%
viability, T/C [8]: 15.1%
viability, T/C [9]: 20.7%
viability, T/C [10]: 29.9%
viability, T/C (second compound 0.316 µM, first compound 0.00316 µM): 64.2%
viability, T/C (second compound 0.316 µM, first compound 0.01 µM): 63.4%
viability, T/C [13]: 32.6%
viability, T/C [14]: 16%
viability, T/C [15]: 21.4%
viability, T/C [16]: 31.4%
viability, T/C (second compound 1 µM, first compound 0.00316 µM): 32.1%
viability, T/C (second compound 1 µM, first compound 0.01 µM): 39.8%
viability, T/C [19]: 13.2%
viability, T/C [20]: 13.6%
viability, T/C [21]: 20.3%
viability, T/C [22]: 18.5%
viability, T/C (second compound 3.16 µM, first compound 0.00316 µM): 34.4%
viability, T/C (second compound 3.16 µM, first compound 0.01 µM): 28.1%
viability, T/C [25]: 14.6%
viability, T/C [26]: 13.8%
viability, T/C [27]: 17.4%
viability, T/C [28]: 17.7%
viability, T/C (second compound 10 µM, first compound 0.00316 µM): 30%
viability, T/C (second compound 10 µM, first compound 0.01 µM): 21.8%
viability, T/C [31]: 12.6%
viability, T/C [32]: 14.6%
viability, T/C [33]: 16.5%
viability, T/C [34]: 17.6%

O=c1[nH]cc(F)c(=O)[nH]1 + CNC(=O)c1ccc(Nc2nc(OC3CCCC3)c3c(-c4ccc5nc(C)oc5c4)c[nH]c3n2)c(OC)c1
pIC50 (second compound 0.0316 µM): 5.12
pIC50 (second compound 0.1 µM): 5.30
pIC50 (second compound 0.316 µM): 5.39
pIC50 (second compound 1 µM): > 7.50
pIC50 (second compound 3.16 µM): > 7.50
pIC50 (second compound 10 µM): > 7.50
viability, T/C [1]: 110%
viability, T/C [2]: 104%
viability, T/C [3]: 103%
viability, T/C [4]: 103%
viability, T/C [5]: 75.5%
viability, T/C [6]: 41.6%
viability, T/C [7]: 91.3%
viability, T/C [8]: 119%
viability, T/C [9]: 106%
viability, T/C [10]: 98.2%
viability, T/C [11]: 64.3%
viability, T/C [12]: 28.3%
viability, T/C [13]: 68%
viability, T/C [14]: 64%
viability, T/C [15]: 57.7%
viability, T/C [16]: 60.7%
viability, T/C [17]: 56.5%
viability, T/C [18]: 29.9%
viability, T/C [19]: 34%
viability, T/C [20]: 40.4%
viability, T/C [21]: 33.7%
viability, T/C [22]: 31.7%
viability, T/C [23]: 32.9%
viability, T/C [24]: 23.9%
viability, T/C [25]: 33.4%
viability, T/C [26]: 37.3%
viability, T/C [27]: 31.5%
viability, T/C [28]: 29.5%
viability, T/C [29]: 28.5%
viability, T/C [30]: 20.8%
viability, T/C [31]: 35.1%
viability, T/C [32]: 30.4%
viability, T/C [33]: 29%
viability, T/C [34]: 29%
viability, T/C [35]: 31.2%
viability, T/C [36]: 19.7%

Source: PubChem BioAssay AID2060606 (Molecular Pharmacology Branch, DTP, NCI, 2025)
